Common to all, as to type: biochemical
Data set [1] has as its system 3′-OH nucleotides. The data set can be described thus: Purification (polishing) of heated 3′-blocked nucleotides with Klenow polymerase and different templates, then 2×151 cycle sequencing on MINISEQ (FIG. 8). To be noted: Klenow polymerase, 30 minutes at 37° C., nucleotides heated 5 hours at 55° C. The method, then: FIG. 8 is a plot of phasing and prephasing during polymerization of 3′-blocked nucleotides that were purified using different conditions. More specifically, an aqueous solution of 3′-blocked nucleotides blocked with azidomethyl groups was heated for 5 hours at 55° C. so as to simulate nucleotide stress conditions and convert a portion of the 3′-blocked nucleotides to 3′-OH nucleotides. The resulting aqueous mixture of 3′-blocked nucleotides and 3′-OH nucleotides was purified for 30 minutes at 37° C. in a manner such as described with reference to FIGS. 1A-1B and 3, using the Klenow polymerase and different conditions, e.g., different templates, and different concentrations of templates, such as described further below. The purified 3′-blocked nucleotides then were used in a sequencing reaction, using 2×151 cycle runs on the MINISEQ® sequencing-by-synthesis instrument (Ilumina, Inc., San Diego Calif.) using the PhiX library as templates. The purified nucleotides behaved similarly in the two sequencing reads (R1 and R2). The accumulated prephasing over 150 cycles of read 1 (R1 C150% prephasing weight) and the accumulated phasing over 150 cycles of read 1 (R1 C150% phasing weight) after 3′-blocked nucleotide polymerization was measured for the purified 3′-blocked nucleotides, as well as for heated and unpurified 3′-blocked nucleotides and for unheated 3′-blocked nucleotides.
The effect of concentration of a first example template was determined. More specifically, the next data points to the right (“50 nM”) correspond to polymerization of 3′-blocked nucleotides that had been heated as indicated above and were purified using 50 nM of a 20N template of sequence 5′-NNNNNNNNNNNNNNNNNNNNCGGCCATATAACTGGTAGCTT-3′ (SEQ ID NO: 5), whereN are degenerated bases, combined in equimolar amount with a primer oligonucleotide sequence AAGCTACCAGTTATATGGCCG (SEQ ID NO: 6). […] From a comparison of the data points corresponding to different concentrations of the 20N template, it may be understood that with increased concentration of 20N template, prephasing approached a similar prephasing as for the unheated (“std”) 3′-blocked nucleotides.
Different templates were used to determine their effect on phasing and prephasing. More specifically, the next data points to the right (“4N”) correspond to polymerization of 3′-blocked nucleotides that had been heated as indicated above and were purified using 200 nM of a 4N template of sequence 5′-NNN NCGGC CAT ATA ACT GGT AGCTT-3′ (SEQ ID NO: 7) where N are degenerated bases, combined in equimolar amount with primer oligonucleotide sequence AAGCTACCAGTTATATGGCCG (SEQ ID NO: 6). […] The next data points to the right (“6N”) correspond to polymerization of 3′-blocked nucleotides that had been heated as indicated above and were purified using 200 nM of a 6N template of sequence 5′-[…]-3′ (SEQ ID NO: 8), combined in equimolar amount with primer oligonucleotide sequence AAGCTACCAGTTATATGGCCG (SEQ ID NO: 6).
The next data points to the right correspond to polymerization of 3′-blocked nucleotides that had been heated as indicated above and were purified using 200 nM of a mixture of 4 hairpin templates, each template corresponding to one base, of respective sequences GGGGGGGGGGGGCGGCCATATAACTGGTCACTCCAGTTATATGGCCG (hairpin G) (SEQ ID NO: 9), TTTTTTTTTTTTCGGCCATAT AACTGG TCACTCCAGTTATATGGCCG (hairpin T) (SEQ ID NO: 10), CCCCCCCCCCCCCGGCCATAT AACTGG TCACTCCAGTTATATGGCCG (hairpin C) (SEQ ID NO: 11), AAAAAAAAAAAACGGCCATATAACTGGTCACTCCAGTTATATGGCCG (hairpin A) (SEQ ID NO: 12). The hairpin templates were added to the reaction at the same concentration to reach a final concentration of 200 nM of DNA. […]

In data set [2] the test system is 3′-OH nucleotides. The data set can be described thus: Purification of heated 3′-blocked nucleotides with different polymerases and temperatures, then 2×26 cycle sequencing on MINISEQ (FIG. 9). To be noted: 30 minutes, hp template with 20 degenerated bases, nucleotides heated 5 hours at 55° C. As for the experimental part: FIG. 9 is a plot of phasing and prephasing during polymerization of 3′-blocked nucleotides that were purified to remove 3′-OH nucleotides using different polymerases and different temperatures. More specifically, similarly as for Example 1, an aqueous solution of 3′-blocked nucleotides blocked with azidomethyl groups was heated for 5 hours at 55° C. so as to convert a portion of the 3′-blocked nucleotides to 3′-OH nucleotides. The resulting aqueous mixture of 3′-blocked nucleotides and 3′-OH nucleotides was purified for 30 minutes in a manner such as described with reference to FIGS. 1A-1B and 3, using an hp oligomer template with 20 degenerated bases (meaning that at each position, one of the four bases could be incorporated; since this is random, each oligomer should have a different sequence) and different polymerases and different temperatures such as described further below. The purified 3′-blocked nucleotides then were polymerized using 2×26 cycle runs on the MINISEQ® sequencing-by-synthesis instrument (Illumina, Inc., San Diego Calif.) using the PhiX library as templates. The slope adjusted prephasing and phasing were measured for the purified 3′-blocked nucleotides, as well as for heated and unpurified 3′-blocked nucleotides and for unheated 3′-blocked nucleotides.
Different polymerases were used at different temperatures to determine their effect on phasing and prephasing. More specifically, the next data points to the right (“Vent polishing 60 C”) correspond to polymerization of 3′-blocked nucleotides that had been heated as indicated above and were purified using the Deep Vent polymerase at 60° C. […] From a comparison of performance of the different polymerases, it may be understood that using the Deep Vent polymerase at 60° C. provided similar phasing and prephasing as for the lower baseline “no stress” in which the 3′-blocked nucleotides were not heated. Additionally, it may be understood that using the Taq polymerase at the experimental temperatures provided even less prephasing than for the lower baseline “no stress” in which the 3′-blocked nucleotides were not heated. Accordingly, it may be understood that the Taq polymerase removed from solution not only the 3′-OH nucleotides that were generated using heating, but also at least some of the 3′-OH nucleotides that were present even without heating. Under the particular experimental conditions in this example, the Taq polymerase appeared to provide better performance than Deep Vent, and neither Deep Vent or Taq appeared to detrimentally influence phasing.

Data set [3] has as its system 3′-OH nucleotides. The data set can be described thus: Purification with Taq polymerase at different temperatures and nucleotide concentrations, then 2×26 cycle sequencing on MISEQ (FIG. 11). To be noted: 30 minutes, 0.5 mM or 1 mM nucleotides, control about 0.1%. As for the experimental part:
FIG. 11 is a plot of prephasing during polymerization of 3′-blocked nucleotides that were purified to remove 3′-OH nucleotides using different temperatures and concentrations of 3′-blocked nucleotides. Similarly as for Example 1, an aqueous solution of 3′-blocked nucleotides blocked with azidomethyl groups was heated for 5 hours at 55° C. so as to convert a portion of the 3′-blocked nucleotides to 3′-OH nucleotides. The resulting aqueous mixture of 3′-blocked nucleotides and 3′-OH nucleotides was purified for 30 minutes in a manner such as described with reference to FIGS. 1A-1B and 3, using 10× of an hp oligomer template with 20 degenerated bases (NNNNNNNNNNNNNNNNNNNN CGGCCATATAACTGGTAGCTTTTTTAAGCTACC AGTT AT ATG GCC G (SEQ ID NO. 1)), 10× of the Taq polymerase and either 0.5 mM or 1 mM of the heated 3′-blocked nucleotides, at a variety of temperatures. The purified 3′-blocked nucleotides then were polymerized using 2×26 cycle runs on the MISEQ® sequencing-by-synthesis instrument (Illumina, Inc., San Diego Calif.) using the PhiX library as templates. The normalized prephasing was measured for the purified 3′-blocked nucleotides, as well as for heated and unpurified Y-blocked nucleotides and for unheated Y-blocked nucleotides. […]

With “5′-NNN NCGGC CAT ATA ACT GGT AGCTT-3′ (DNA NNNNCGGCCATATAACTGGTAGCTT; degenerate-base DNA template for purifying nucleotides, chemistry not given here) [4N template]”, in the data set with 3′-OH nucleotides [1] (200 nM template), the “R1 C150 phasing weight” value is listed as “about 18.5%” and the “R1 C150 prephasing weight” value is “about 21%”.
On to “5′-NNNNNNNNNNNNNNNNNNNNCGGCCATATAACTGGTAGCTT-3′ [20N template]”, for which the “R1 C150 phasing weight” value in the data set with 3′-OH nucleotides [1] (50 nM template) was “about 12%”; in the data set on 3′-OH nucleotides [1] (200 nM template) it was “about 18.5%”; in the data set with 3′-OH nucleotides [1] (300 nM template), “about 19%”; with 3′-OH nucleotides [1] (500 nM template) it was “about 23%”. For the same molecule, the “R1 C150 prephasing weight” value in the data set on 3′-OH nucleotides [1] (50 nM template) is “about 24%”; in the data set with 3′-OH nucleotides [1] (200 nM template) it was “about 16.5%”; with 3′-OH nucleotides [1] (300 nM template) it was “about 13%”; with 3′-OH nucleotides [1] (500 nM template) it was “about 17%”.
For “5′-NNNNNNCGGCCATATAACTGGTAGCTT-3′ (degenerate-base DNA template, chemistry not given here) [6N template]”, in the data set with 3′-OH nucleotides [1] (200 nM template), the “R1 C150 phasing weight” value is given as “about 15%” and the “R1 C150 prephasing weight” value is “about 17.5%”.
Turning to “Taq polymerase: Thermus aquaticus DNA polymerase I, thermostable polishing polymerase”, the normalized phasing result in the data set with 3′-OH nucleotides [2] (purified at 37° C.) is recorded as “about 0.13%”; with 3′-OH nucleotides [2] (purified at 45° C.), “about 0.12%”; in the data set on 3′-OH nucleotides [2] (purified at 60° C.) it was “about 0.12%”. Also, the normalized prephasing result in the data set with 3′-OH nucleotides [2] (purified at 37° C.) was “about 0.09%”; in the data set with 3′-OH nucleotides [2] (purified at 45° C.), “about 0.08%”; in the data set with 3′-OH nucleotides [2] (purified at 60° C.), “about 0.09%”; in the data set on 3′-OH nucleotides [3] (purified at 53° C.), “significantly lower than the control”; with 3′-OH nucleotides [3] (purified at 60° C.), “significantly lower than the control”.

B1: NNNNNNNNNNNNNNNNNNNN CGGCCATATAACTGGTAGCTTTTTTAAGCTACC AGTT AT ATG GCC G (nucleic acid)
DNA: NNNNNNNNNNNNNNNNNNNNCGGCCATATAACTGGTAGCTTTTTTAAGCTACCAGTTATATGGCCG
modifications: hairpin template with 20 degenerate bases, chemistry not given here
B1: in the data set on 3′-OH nucleotides [1] (200 nM template), the “R1 C150 phasing weight” value is “about 12%” and the “R1 C150 prephasing weight” value was “about 16%”.

Source of the values: patent publication US20220389500A1, “PURIFYING AND POLYMERIZING 3'-BLOCKED NUCLEOTIDES” (ILLUMINA, INC., priority 2021, published 2022).
